Key:
[1] = biological target: T1, Muscarinic acetylcholine receptor M5 (Homo sapiens, UniProt P08912); type: cell membranes, CHO-K1, Membrane; further: in other assays of this panel Not Active means under 50% inhibition at 10 µM
T1 sequence (P08912 whole entry): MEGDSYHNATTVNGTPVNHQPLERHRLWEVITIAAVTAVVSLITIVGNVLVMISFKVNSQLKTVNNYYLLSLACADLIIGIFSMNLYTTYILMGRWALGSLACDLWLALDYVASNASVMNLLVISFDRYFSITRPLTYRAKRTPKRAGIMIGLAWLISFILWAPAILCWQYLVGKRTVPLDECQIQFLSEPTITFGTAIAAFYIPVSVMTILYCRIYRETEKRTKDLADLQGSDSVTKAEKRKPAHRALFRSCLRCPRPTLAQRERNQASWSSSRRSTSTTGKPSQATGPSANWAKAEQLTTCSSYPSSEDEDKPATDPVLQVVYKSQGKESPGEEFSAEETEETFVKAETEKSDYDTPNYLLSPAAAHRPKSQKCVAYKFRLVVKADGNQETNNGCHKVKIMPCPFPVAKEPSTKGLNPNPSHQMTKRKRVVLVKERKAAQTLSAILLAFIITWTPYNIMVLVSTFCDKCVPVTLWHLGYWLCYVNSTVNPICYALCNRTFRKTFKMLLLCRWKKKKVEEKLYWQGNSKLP

[2] = biological target: Mitogen-activated protein kinase 14 (Homo sapiens, UniProt Q16539); parameters: species or system Escherichia coli;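 further: inhibition of p38alpha enzyme activity in a biochemical kinase assay, with myelin basic protein serving as substrate; in other assays of this panel Not Active means under 50% inhibition at 10 µM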
[3] = biological target: Melanocortin receptor 4 (Homo sapiens, UniProt P32245); type: cell membranes, HEK293, Membrane; further: in other assays of this panel Not Active means under 50% inhibition at 10 µM
[4] = biological target: Glycine receptor (Rattus norvegicus, UniProt P22771+P24524+P07727+P20781); type: cell membranes, Wistar, Spinal cord, Membrane; further: in other assays of this panel Not Active means under 50% inhibition at 10 µM
[5] = biological target: cGMP-specific 3',5'-cyclic phosphodiesterase (Homo sapiens, UniProt O76074); assay: DRUGMATRIX: Phosphodiesterase PDE5 enzyme inhibition (substrate: [3H]cGMP + cGMP); type: tissue-based, Platelet; conditions: platelet; Not Active = under 50% inhibition at 10 µM
[6] = biological target: T2, Amine oxidase [flavin-containing] A (Homo sapiens, UniProt P21397); assay: DRUGMATRIX: Monoamine Oxidase MAO-A enzyme inhibition (substrate: Kynuramine); parameters: species or system BTI-TN-5B1-4; conditions: Not Active = under 50% inhibition at 10 µM
T2 sequence (P21397 whole entry): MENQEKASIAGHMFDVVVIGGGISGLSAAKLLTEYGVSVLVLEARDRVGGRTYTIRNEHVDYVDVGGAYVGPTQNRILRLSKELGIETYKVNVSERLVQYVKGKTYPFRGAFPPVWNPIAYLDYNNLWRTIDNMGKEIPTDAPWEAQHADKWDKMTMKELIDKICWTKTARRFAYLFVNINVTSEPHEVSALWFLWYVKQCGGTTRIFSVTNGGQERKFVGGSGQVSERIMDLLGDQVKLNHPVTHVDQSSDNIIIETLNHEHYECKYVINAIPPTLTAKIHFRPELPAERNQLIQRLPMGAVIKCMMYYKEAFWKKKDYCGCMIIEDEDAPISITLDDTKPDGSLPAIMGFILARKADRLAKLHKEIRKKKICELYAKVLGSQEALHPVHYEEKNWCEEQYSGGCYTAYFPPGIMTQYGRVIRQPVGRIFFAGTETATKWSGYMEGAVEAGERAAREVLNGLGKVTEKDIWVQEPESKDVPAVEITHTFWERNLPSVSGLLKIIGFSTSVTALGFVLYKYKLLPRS

[7] = biological target: Vascular endothelial growth factor receptor 1 (Homo sapiens, UniProt P17948); assay: biochemical; type: cell-based, HUVEC; conditions: huvec; further: in other assays of this panel Not Active means under 50% inhibition at 10 µM
Chain of Vascular endothelial growth factor receptor 1 (P17948 whole entry): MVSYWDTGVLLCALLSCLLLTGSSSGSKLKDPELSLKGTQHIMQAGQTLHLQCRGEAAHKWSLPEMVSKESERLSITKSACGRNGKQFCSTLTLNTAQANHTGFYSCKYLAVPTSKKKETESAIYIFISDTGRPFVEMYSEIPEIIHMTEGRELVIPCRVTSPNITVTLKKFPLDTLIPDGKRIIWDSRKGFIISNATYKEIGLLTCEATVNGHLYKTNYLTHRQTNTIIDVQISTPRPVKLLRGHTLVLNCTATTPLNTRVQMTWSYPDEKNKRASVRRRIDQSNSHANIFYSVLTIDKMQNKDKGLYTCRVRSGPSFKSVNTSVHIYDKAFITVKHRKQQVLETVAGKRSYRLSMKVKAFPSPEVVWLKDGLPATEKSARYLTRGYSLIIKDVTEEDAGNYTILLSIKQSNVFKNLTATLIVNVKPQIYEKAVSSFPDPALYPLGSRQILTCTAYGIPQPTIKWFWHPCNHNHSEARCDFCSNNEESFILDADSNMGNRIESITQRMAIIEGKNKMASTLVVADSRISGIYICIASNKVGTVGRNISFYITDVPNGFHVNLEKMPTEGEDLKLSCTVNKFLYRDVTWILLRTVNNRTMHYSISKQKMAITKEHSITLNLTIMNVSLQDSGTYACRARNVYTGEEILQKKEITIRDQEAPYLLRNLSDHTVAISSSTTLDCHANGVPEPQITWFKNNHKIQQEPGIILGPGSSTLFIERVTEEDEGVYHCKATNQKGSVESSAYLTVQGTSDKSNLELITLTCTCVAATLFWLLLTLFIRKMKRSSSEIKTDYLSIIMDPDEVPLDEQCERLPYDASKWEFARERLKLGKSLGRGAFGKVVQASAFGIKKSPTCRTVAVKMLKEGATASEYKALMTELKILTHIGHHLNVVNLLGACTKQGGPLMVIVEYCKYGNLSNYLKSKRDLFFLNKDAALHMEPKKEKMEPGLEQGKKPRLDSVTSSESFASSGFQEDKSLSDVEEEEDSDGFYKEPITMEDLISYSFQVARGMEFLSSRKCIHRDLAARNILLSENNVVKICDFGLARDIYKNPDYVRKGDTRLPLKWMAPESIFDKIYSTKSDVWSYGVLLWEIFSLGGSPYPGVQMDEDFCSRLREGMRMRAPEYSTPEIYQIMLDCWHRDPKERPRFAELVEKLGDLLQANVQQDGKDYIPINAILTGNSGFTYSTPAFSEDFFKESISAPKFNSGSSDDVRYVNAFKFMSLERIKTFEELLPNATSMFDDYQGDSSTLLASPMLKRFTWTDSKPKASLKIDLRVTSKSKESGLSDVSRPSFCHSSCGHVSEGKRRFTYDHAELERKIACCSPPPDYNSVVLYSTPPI

Chain of Melanocortin receptor 4 (P32245 whole entry): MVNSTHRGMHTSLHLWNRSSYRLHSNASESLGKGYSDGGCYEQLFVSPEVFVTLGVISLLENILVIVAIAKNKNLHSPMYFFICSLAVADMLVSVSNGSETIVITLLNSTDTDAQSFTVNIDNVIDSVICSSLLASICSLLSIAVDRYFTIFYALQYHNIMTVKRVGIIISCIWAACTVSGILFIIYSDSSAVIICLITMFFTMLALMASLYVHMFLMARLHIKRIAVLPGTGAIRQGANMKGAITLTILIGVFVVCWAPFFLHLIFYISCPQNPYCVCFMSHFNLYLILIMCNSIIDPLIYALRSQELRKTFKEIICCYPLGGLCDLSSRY
Chain of Mitogen-activated protein kinase 14 (Q16539 whole entry): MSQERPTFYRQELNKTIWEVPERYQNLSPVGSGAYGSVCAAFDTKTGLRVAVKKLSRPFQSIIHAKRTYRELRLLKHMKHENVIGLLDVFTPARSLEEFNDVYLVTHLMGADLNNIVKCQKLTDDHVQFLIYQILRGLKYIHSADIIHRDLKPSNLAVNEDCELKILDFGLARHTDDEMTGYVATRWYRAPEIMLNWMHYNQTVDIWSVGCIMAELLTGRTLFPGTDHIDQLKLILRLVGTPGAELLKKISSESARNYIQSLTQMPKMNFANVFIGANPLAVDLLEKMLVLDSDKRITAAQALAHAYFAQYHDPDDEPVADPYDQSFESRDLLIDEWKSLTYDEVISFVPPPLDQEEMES

| Compound | IC50 ([1]; cho-k1) | IC50 [2] | IC50 ([3]; hek293) | IC50 [4] | IC50 [5] | IC50 ([6]; bti-tn-5b1-4) | IC50 [7] | IC50 ([1]; read-out: IC50) [µM] | Ki ([1]; read-out: Ki) [µM] | IC50 ([6]; read-out: IC50) [µM] | Ki ([1]; cho-k1) | Ki [2] | Ki ([3]; hek293) | Ki [4] | Ki [5] | Ki ([6]; bti-tn-5b1-4) | Ki [7] | IC50 ([2]; read-out: IC50) [µM] | IC50 ([3]; read-out: IC50) [µM] | Ki ([3]; read-out: Ki) [µM] |
| --- | --- | --- | --- | --- | --- | --- | --- | --- | --- | --- | --- | --- | --- | --- | --- | --- | --- | --- | --- | --- |
| CC(C)NCC(O)c1ccc(O)c(O)c1 (stereo not given) [ISOPROTERENOL] | Not Active | Not Active | Not Active | Not Active | Not Active | Not Active | Not Active |  |  |  |  |  |  |  |  |  |  |  |  |  |
| NC1CCN(c2nc3c(cc2F)c(=O)c(C(=O)O)cn3-c2ccc(F)cc2F)C1 (stereo not given) [TOSUFLOXACIN] | Not Active | Not Active | Not Active | Not Active | Not Active | Not Active | Not Active |  |  |  |  |  |  |  |  |  |  |  |  |  |
| COc1ccc(CCN(C)CCCC(C#N)(c2ccc(OC)c(OC)c2)C(C)C)cc1OC (stereo not given) | Not Active | Not Active | Not Active | Not Active | Not Active | Not Active | Not Active |  |  |  |  |  |  |  |  |  |  |  |  |  |
| CN[C@H]1CC[C@@H](c2ccc(Cl)c(Cl)c2)c2ccccc21 [SERTRALINE] |  | Not Active | Not Active | Not Active | Not Active | Not Active | Not Active | 0.507 | 0.365 |  |  |  |  |  |  |  |  |  |  |  |
| O=C(Oc1ccccc1C(=O)O)c1ccccc1O [SALSALATE] | Not Active | Not Active | Not Active | Not Active | Not Active | Not Active | Not Active |  |  |  |  |  |  |  |  |  |  |  |  |  |
| NC(=O)N1C(=O)/C(=C(\O)c2cccs2)c2cc(Cl)ccc21 [TENIDAP] | Not Active | Not Active | Not Active | Not Active | Not Active | Not Active | Not Active |  |  |  |  |  |  |  |  |  |  |  |  |  |
| O=C1C(CC[S+]([O-])c2ccccc2)C(=O)N(c2ccccc2)N1c1ccccc1 (stereo not given) [SULFINPYRAZONE] | Not Active | Not Active | Not Active | Not Active | Not Active | Not Active | Not Active |  |  |  |  |  |  |  |  |  |  |  |  |  |
| C[C@H]1C[C@@H]2[C@H]([C@@H](O)C[C@@]3(C)[C@H]2CC[C@]3(O)C(=O)CO)[C@@]2(C)C=CC(=O)C=C12 [METHYLPREDNISOLONE] | Not Active | Not Active | Not Active | Not Active | Not Active | Not Active | Not Active |  |  |  |  |  |  |  |  |  |  |  |  |  |
| N#Cc1ccc(C(c2ccc(C#N)cc2)n2cncn2)cc1 [LETROZOLE] | Not Active | Not Active | Not Active | Not Active | Not Active | Not Active | Not Active |  |  |  |  |  |  |  |  |  |  |  |  |  |
| COc1cc2nc(N3CCN(C(=O)C4CCCO4)CC3)nc(N)c2cc1OC (stereo not given) [TERAZOSIN] | Not Active | Not Active | Not Active | Not Active | Not Active | Not Active | Not Active |  |  |  |  |  |  |  |  |  |  |  |  |  |
| O=C(O)c1cn(-c2ccc(F)cc2)c2cc(N3CCNCC3)c(F)cc2c1=O [SARAFLOXACIN] | Not Active | Not Active | Not Active | Not Active | Not Active | Not Active | Not Active |  |  |  |  |  |  |  |  |  |  |  |  |  |
| CO[C@H]1/C=C/O[C@@]2(C)Oc3c(C)c(O)c4c(O)c(c(/C=N/N5CCN(C6CCCC6)CC5)c(O)c4c3C2=O)NC(=O)/C(C)=C\C=C\[C@H](C)[C@H](O)[C@@H](C)[C@@H](O)[C@@H](C)[C@H](OC(C)=O)[C@@H]1C [RIFAPENTINE] | Not Active | Not Active | Not Active | Not Active | Not Active | Not Active | Not Active |  |  |  |  |  |  |  |  |  |  |  |  |  |
| CCCCOc1cc(CC2CNC(=O)N2)ccc1OC (stereo not given) [RO-201724] | Not Active | Not Active | Not Active | Not Active | Not Active | Not Active | Not Active |  |  |  |  |  |  |  |  |  |  |  |  |  |
| CC[C@@H](C(=O)[C@@H](C)[C@@H](O)[C@H](C)[C@@H]1O[C@@H]([C@@H](CC)C(=O)O)CC[C@@H]1C)[C@H]1O[C@]2(C=C[C@@H](O)[C@]3(CC[C@@](C)([C@H]4CC[C@](O)(CC)[C@H](C)O4)O3)O2)[C@H](C)C[C@@H]1C [SALINOMYCIN] | Not Active | Not Active | Not Active | Not Active | Not Active | Not Active | Not Active |  |  |  |  |  |  |  |  |  |  |  |  |  |
| CCCCNc1ccc(C(=O)OCCN(C)C)cc1 [TETRACAINE] | Not Active | Not Active | Not Active | Not Active | Not Active |  | Not Active |  |  | 0.317 |  |  |  |  |  |  |  |  |  |  |
| CCN(CC)CCNC(=O)c1cc(S(C)(=O)=O)ccc1OC [TIAPRIDE] | Not Active | Not Active | Not Active | Not Active | Not Active | Not Active | Not Active |  |  |  |  |  |  |  |  |  |  |  |  |  |
| MANGANESE CHLORIDE ANHYDROUS | Not Active | Not Active | Not Active | Not Active | Not Active | Not Active | Not Active |  |  |  | Not Active | Not Active | Not Active | Not Active | Not Active | Not Active | Not Active |  |  |  |
| O.O.O.O.O.O.[Cl-].[Cl-].[Sr+2] [STRONTIUM CHLORIDE HEXAHYDRATE] | Not Active | Not Active | Not Active | Not Active | Not Active | Not Active | Not Active |  |  |  |  |  |  |  |  |  |  |  |  |  |
| CNC1(c2ccccc2Cl)CCCCC1=O (stereo not given) [KETAMINE] | Not Active | Not Active | Not Active | Not Active | Not Active | Not Active | Not Active |  |  |  |  |  |  |  |  |  |  |  |  |  |
| CCN(CC)CC(=O)Nc1c(C)cccc1C [LIDOCAINE] | Not Active | Not Active | Not Active | Not Active | Not Active | Not Active | Not Active |  |  |  |  |  |  |  |  |  |  |  |  |  |
| Nc1cc(N2CCCCC2)nc(N)[n+]1[O-] [MINOXIDIL] | Not Active | Not Active | Not Active | Not Active | Not Active | Not Active | Not Active |  |  |  |  |  |  |  |  |  |  |  |  |  |
| COc1c2occc2cc2ccc(=O)oc12 [METHOXSALEN] | Not Active | Not Active | Not Active | Not Active | Not Active | Not Active | Not Active |  |  |  |  |  |  |  |  |  |  |  |  |  |
| Cc1c(C)c2c(c(C)c1O)CCC(C)(CN1CCN(c3cc(N4CCCC4)nc(N4CCCC4)n3)CC1)O2 (stereo not given) | Not Active |  |  | Not Active | Not Active | Not Active | Not Active |  |  |  |  |  |  |  |  |  |  | 5.6 | 58 | 55.8 |
| CS(=O)(=O)c1ccc([C@@H](O)[C@@H](CO)NC(=O)C(Cl)Cl)cc1 [THIAMPHENICOL] | Not Active | Not Active | Not Active | Not Active | Not Active | Not Active | Not Active |  |  |  |  |  |  |  |  |  |  |  |  |  |
| Clc1ccc(COC(Cn2ccnc2)c2ccc(Cl)cc2Cl)cc1 (stereo not given) [ECONAZOLE] | Not Active | Not Active | Not Active | Not Active | Not Active | Not Active | Not Active |  |  |  |  |  |  |  |  |  |  |  |  |  |
| Clc1ccccc1CN1CCc2sccc2C1 [TICLOPIDINE] | Not Active | Not Active | Not Active | Not Active | Not Active | Not Active | Not Active |  |  |  |  |  |  |  |  |  |  |  |  |  |
| CC(C)Oc1ccc2c(=O)c(-c3ccccc3)coc2c1 [IPRIFLAVONE] | Not Active | Not Active | Not Active | Not Active | Not Active | Not Active | Not Active |  |  |  |  |  |  |  |  |  |  |  |  |  |
| CCN1CCC[C@H]1CNC(=O)c1cc(S(N)(=O)=O)ccc1OC [LEVOSULPIRIDE] | Not Active | Not Active | Not Active | Not Active | Not Active | Not Active | Not Active |  |  |  |  |  |  |  |  |  |  |  |  |  |

Reference: ChEMBL document CHEMBL1909046, “DrugMatrix in vitro pharmacology data”
